Data published in patent US8178678B2, “Bis-quaternary ammonium salts and methods for modulating neuronal nicotinic acetylcholine receptors” (University of Kentucky Research Foundation, priority 2006, dated 2012).

Assays:
[1] = target: T1, Rat Striatal Nicotinic Receptors ([^3H]NIC binding sites; α4β2) (Rattus norvegicus, UniProt P09483+P12390); test: Inhibition of [^3H]NIC binding; conditions: 1 h; 100 nM analog; 3 nM [^3H]NIC; nonspecific 10 μM cytisine; rat brain membranes
T1 construct: Whole brain, excluding cortex and cerebellum, was homogenized in 20 vol of ice-cold buffer; from tissue; host or cells: rat brain membranes (whole brain excluding cortex and cerebellum)
T1 sequence (P09483 31-630): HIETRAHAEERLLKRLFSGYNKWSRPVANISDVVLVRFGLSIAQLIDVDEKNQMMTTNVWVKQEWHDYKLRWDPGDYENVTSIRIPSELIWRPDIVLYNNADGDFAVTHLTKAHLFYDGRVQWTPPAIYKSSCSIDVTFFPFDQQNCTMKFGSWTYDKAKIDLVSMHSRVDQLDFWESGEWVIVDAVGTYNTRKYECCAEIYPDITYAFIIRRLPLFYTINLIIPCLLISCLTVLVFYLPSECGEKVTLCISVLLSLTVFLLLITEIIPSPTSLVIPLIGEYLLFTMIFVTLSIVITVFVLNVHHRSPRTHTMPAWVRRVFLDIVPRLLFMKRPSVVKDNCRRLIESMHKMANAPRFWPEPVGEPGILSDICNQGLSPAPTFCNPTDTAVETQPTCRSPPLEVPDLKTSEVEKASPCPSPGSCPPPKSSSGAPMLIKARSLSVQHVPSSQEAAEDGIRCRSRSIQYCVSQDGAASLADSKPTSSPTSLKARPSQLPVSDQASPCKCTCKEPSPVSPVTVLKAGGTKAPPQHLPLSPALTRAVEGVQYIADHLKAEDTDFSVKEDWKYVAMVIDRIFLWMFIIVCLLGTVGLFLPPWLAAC
T1 sequence (P12390 25-500): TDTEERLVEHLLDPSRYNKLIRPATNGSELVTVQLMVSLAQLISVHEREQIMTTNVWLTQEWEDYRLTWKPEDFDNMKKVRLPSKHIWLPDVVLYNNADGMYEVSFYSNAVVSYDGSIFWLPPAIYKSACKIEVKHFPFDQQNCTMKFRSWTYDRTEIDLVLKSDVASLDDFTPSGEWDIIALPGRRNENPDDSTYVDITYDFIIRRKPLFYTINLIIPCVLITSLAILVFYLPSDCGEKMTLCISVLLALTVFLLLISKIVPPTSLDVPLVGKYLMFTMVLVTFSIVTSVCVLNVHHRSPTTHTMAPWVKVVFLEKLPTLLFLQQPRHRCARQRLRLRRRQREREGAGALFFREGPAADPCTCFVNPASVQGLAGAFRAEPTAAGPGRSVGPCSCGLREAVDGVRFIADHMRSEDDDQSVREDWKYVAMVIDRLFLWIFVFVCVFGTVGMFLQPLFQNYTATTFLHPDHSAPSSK
Method: (§1) Homogenate was centrifuged (25,000 g, 15 min, 4° C). Pellets were resuspended in 20 vol buffer and incubated at 37° C., for 10 min, cooled to 4° C. and centrifuged (25,000 g, 15 min, 4° C.). Pellets were resuspended and centrifuged using the same conditions. […] Upon use, final pellets were resuspended in 20 vol assay buffer. Samples (250 μl) contained 100-140 μg of membrane protein, 3 nM [^3H]-S-nicotine or 3 nM [^3H]-methyllycaconitine (MLA), and bis-quaternary ammonium analog (100 nM) in assay buffer containing 50 mM Tris. Control was in the absence of analog. In [^3H]-S-nicotine and [^3H]-methyllycaconitine binding assays, nonspecific binding was determined in the presence of 10 μM cytisine and 10 μM S-nicotine, respectively. Incubations proceeded for 60 min at room temperature using 96-well plates and were terminated by harvesting on Unifilter-96 GF/B filter plates presoaked in 0.5% polyethylenimine, using a Packard FilterMate harvester. After washing 5 times with 350 μl ice-cold assay buffer, filter plates were dried (60 min, 4° C.), bottom-sealed, and filled with Packard's MicroScint 20 cocktail (40 μl/well). After 60 min, filter plates were top-sealed, and radioactivity determined using a Packard TopCount. Protein concentrations were determined using the Bradford dye-binding procedure bovine serum albumin as the standard.
Specific binding in the [^3H]NIC binding assay is calculated as the difference between the total binding of 3 nM [^3H]NIC and nonspecific binding in the presence of 10 μM cold cytisine. […] Analog-induced inhibition of S-nicotine-evoked [^3H]DA release is calculated as a percent of that in the absence of the bis-quaternary ammonium analog.

[2] = target: T2, Rat Striatal Nicotinic Receptors ([^3H]MLA binding sites; α7) (Rattus norvegicus, UniProt Q05941); test: Inhibition of [^3H]MLA (methyllycaconitine) binding; conditions: 100 nM analog; [^3H]MLA; nonspecific S-nicotine; rat brain membranes; read-out: [^3H]MLA binding, % inhibition
T2 construct: Whole brain, excluding cortex and cerebellum, was homogenized in 20 vol of ice-cold buffer; from tissue; host or cells: rat brain membranes (whole brain excluding cortex and cerebellum)
T2 sequence (Q05941 23-502): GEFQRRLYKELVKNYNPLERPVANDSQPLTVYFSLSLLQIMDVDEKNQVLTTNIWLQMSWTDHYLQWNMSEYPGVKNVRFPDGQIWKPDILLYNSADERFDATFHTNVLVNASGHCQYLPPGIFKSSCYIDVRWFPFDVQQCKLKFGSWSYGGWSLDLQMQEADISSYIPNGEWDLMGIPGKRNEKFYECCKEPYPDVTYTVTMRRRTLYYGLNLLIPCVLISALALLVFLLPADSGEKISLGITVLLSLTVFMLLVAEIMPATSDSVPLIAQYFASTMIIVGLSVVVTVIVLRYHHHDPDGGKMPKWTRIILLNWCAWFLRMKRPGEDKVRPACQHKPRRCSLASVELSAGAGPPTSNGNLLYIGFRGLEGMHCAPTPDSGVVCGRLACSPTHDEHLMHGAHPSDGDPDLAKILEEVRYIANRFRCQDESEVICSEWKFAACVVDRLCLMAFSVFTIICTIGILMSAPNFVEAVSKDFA
Method: as §1, with “standard. […]” for “standard.”

| Structure (SMILES) | inhibition at 0.1 µM [1] [%] | inhibition at 0.1 µM [2] [%] |
| --- | --- | --- |
| Cc1cc[n+](CCCC/C=C\C=C/CCCC[n+]2ccc(C)cc2C)c(C)c1 [Example 7, cis-cis-N,N′-(dodeca-5,7-diene-1,12-diyl)-bis-(2,4-dimethyl-pyridinium)dibromide] | 1 | 6 |
| Cc1cc[n+](CCCC/C=C\C=C/CCCC[n+]2ccc(C)c(C)c2)cc1C [Example 8, cis-cis-N,N′-(dodeca-5,7-diene-1,12-diyl)-bis-(3,4-dimethyl-pyridinium)dibromide] | 0 | 0 |
| Cc1cc(C)c[n+](CCCC/C=C\C=C/CCCC[n+]2cc(C)cc(C)c2)c1 [Example 9, cis-cis-N,N′-(dodeca-5,7-diene-1,12-diyl)-bis-(3,5-dimethyl-pyridinium)dibromide] | 0 | 0 |
| CCc1ccc[n+](CCCCc2ccc(CCCC[n+]3cccc(CC)c3)cc2)c1 [Example 14, N,N′-[1,4-phenylenedi-(4-butanyl)]-bis-(3-ethylpyridinium)dibromide] | 2 | 4 |
| Cc1cc[n+](CCCCc2ccc(CCCC[n+]3ccc(C)cc3C)cc2)c(C)c1 [Example 18, N,N′-[1,4-phenylenedi-(4-butanyl)]-bis-(2,4-dimethylpyridinium)dibromide] | 0 | 0 |
| Cc1cc[n+](CCCCc2ccc(CCCC[n+]3ccc(C)c(C)c3)cc2)cc1C [Example 19, N,N′-[1,4-phenylenedi-(4-butanyl)]-bis-(3,4-dimethylpyridinium)dibromide] | 0 | 0 |
| Cc1cc(C)c[n+](CCCCc2ccc(CCCC[n+]3cc(C)cc(C)c3)cc2)c1 [Example 20, N,N′-[1,4-phenylenedi-(4-butanyl)]-bis-(3,5-dimethylpyridinium)dibromide] | 1 | 0 |
| CCCCc1ccc[n+](CCCCCc2ccccc2CCCCC[n+]2cccc(CCCC)c2)c1 [Example 43, 1,2-bis-[5-(3-n-butyl-pyridinium)-pentyl]-benzene dibromide] | 0.8 | 5.5 |
| CCCCc1ccc[n+](CCCC#Cc2cccc(C#CCCC[n+]3cccc(CCCC)c3)c2)c1 [Example 57, 1,3-bis-[5-(3-n-butyl-pyridinium)-pent-1-ynyl]-benzene dibromide] | 3.5 | 8.7 |
| Cc1cc(C)c[n+](CCCc2ccc(-c3ccc(CCC[n+]4cc(C)cc(C)c4)cc3)cc2)c1 [Example 71, N,N′-[(1,1′-biphenyl)-4,4′-di-(3-propanyl)]-bis-(3,5-dimethylpyridinium)dibromide] | 1.6 | 3.6 |
| Cc1cc[n+](CCCc2ccc(-c3ccc(CCC[n+]4ccc(C)c(C)c4)cc3)cc2)cc1C [Example 72, N,N′-[(1,1′-biphenyl)-4,4′-di-(3-propanyl)]-bis-(3,4-dimethylpyridinium)dibromide] | 0 | 5.5 |
| Cc1cc[n+](CCCc2ccc(-c3ccc(CCC[n+]4ccc(C)cc4C)cc3)cc2)c(C)c1 [Example 73, N,N′-[(1,1′-biphenyl)-4,4′-di-(3-propanyl)]-bis-(2,4dimethylpyridinium)dibromide] | 3 | 0.6 |
| OCCCc1ccc[n+](CCCc2ccc(-c3ccc(CCC[n+]4cccc(CCCO)c4)cc3)cc2)c1 [Example 74, N,N′-[(1,1′-biphenyl)-4,4′-di-(3-propanyl)]-bis-[3-(3-hydroxy-propyl)-pyridinium]dibromide] | 2 | 5.8 |
| c1cc2c([n+](CCCc3ccc(-c4ccc(CCC[n+]5cccc6c5CCCC6)cc4)cc3)c1)CCCC2 [Example 75, N,N′-[(1,1′-biphenyl)-4,4′-di-(3-propanyl)]-bis-[5,6,7,8-tetrahydroquinolinium]dibromide] | 0.4 | 10 |
| c1cc(-c2ccc(CCC[n+]3ccc4c(c3)CCCC4)cc2)ccc1CCC[n+]1ccc2c(c1)CCCC2 [Example 76, N,N′-[(1,1′-biphenyl)-4,4′-di-(3-propanyl)]-bis-[5,6,7,8-tetrahydroisoquinolinium]dibromide] | 0 | 5.1 |
| Cc1cc[n+](CCCc2ccc(-c3ccc(CCC[n+]4ccc(C)cc4)cc3)cc2)cc1 [Example 77, N,N′-[(1,1′-biphenyl)-4,4′-di-(3-propanyl)]-bis-(4-methylpyridinium)dibromide] | 0 | 0 |
| Cc1cccc[n+]1CCCc1ccc(-c2ccc(CCC[n+]3ccccc3C)cc2)cc1 [Example 79, N,N′-[(1,1′-biphenyl)-4,4′-di-(3-propanyl)]-bis-(2-methylpyridinium)dibromide] | 0 | 0 |
| CN1CCC[C@H]1c1ccc[n+](CCOCCOCCOCC[n+]2cccc([C@@H]3CCCN3C)c2)c1 [Example 80, N,N′-{2,2′-[oxybis-(2,1-ethandiyloxy)]bis-ethyl}-bis-[3-(2′-S-1-methyl-pyrrolidin-2-yl)-pyridinium]dichloride] | 7.2 | 13 |
| Cc1cccc[n+]1CCOCCOCCOCC[n+]1ccccc1C [Example 81, N,N′-{2,2′-[oxybis-(2,1-ethandiyloxy)]bis-ethyl}-bis(2-methylpyridinium)dichloride] | 8.5 | 17 |
| c1cc2c([n+](CCOCCOCCOCC[n+]3cccc4c3CCCC4)c1)CCCC2 [Example 84, N,N′-{2,2′-[oxybis-(2,1-ethandiyloxy)]bis-ethyl}-bis(5,6,7,8-tetrahydroquinolinium)dichloride] | 0 | 4.7 |
| c1c[n+](CCOCCOCCOCC[n+]2ccc3c(c2)CCCC3)cc2c1CCCC2 [Example 85, N,N′-{2,2′-[oxybis-(2,1-ethandiyloxy)]bis-ethyl}-bis(5,6,7,8-tetrahydroisoquinolinium)dichloride] | 6 | 16 |
| OCCCc1ccc[n+](CCOCCOCCOCC[n+]2cccc(CCCO)c2)c1 [Example 86, N,N′-{2,2′-[oxybis-(2,1-ethandiyloxy)]bis-ethyl}-bis-[3-(3-hydroxypropyl)-pyridinium]dichloride] | 8.2 | 8.5 |
| OCc1ccc[n+](CCOCCOCCOCC[n+]2cccc(CO)c2)c1 [Example 87, N,N′-{2,2′-[oxybis-(2,1-ethandiyloxy)]bis-ethyl}-bis-(3-hydroxymethylpyridinium)dichloride] | 8.2 | 11 |
| Cc1cc[n+](CCOCCOCCOCC[n+]2ccc(C)cc2C)c(C)c1 [Example 88, N,N′-{2,2′-[oxybis-(2,1-ethandiyloxy)]bis-ethyl}-bis-(2,4-dimethylpyridinium)dichloride] | 0 | 2.9 |
| Cc1cc[n+](CCOCCOCCOCC[n+]2ccc(C)c(C)c2)cc1C [Example 89, N,N′-{2,2′-[oxybis-(2,1-ethandiyloxy)]bis-ethyl}-bis-(3,4-dimethylpyridinium)dichloride] | 13 | 14 |
